US12590063B2, “Phenol derivative” (Sumitomo Pharma Co., Ltd., priority 2020, dated 2026)
Where a name gives a salt, the structure may show the parent alone. Marks after values point to notes of the source that are not given here.

How the values were obtained:
Human TRPV1 = target: T1, Human TRPV1 (Homo sapiens, UniProt Q8NER1); experiment: Evaluation of agonistic properties using human TRPV1 transiently expressing cells; assay type: cell-based; settings: for EC50: HEK293 cells transiently expressing human TRPV1 and apoaequorin, luminescence signal Rlu (Max-Min), read-out: TRPV1 EC50; for TRPV-1-agonistic activity (in words): evaluation test for TRPV-1-agonistic properties, summary of Tables 3 and 4
T1 construct: the TRPV1 gene (GenBank NP_542435.2) had been inserted; expressed in transfected cells; host or cells: HEK293 cells (cat #CCL-82.2, ATCC), transient transfection with pcDNA3.1
T1 sequence (Q8NER1 whole entry): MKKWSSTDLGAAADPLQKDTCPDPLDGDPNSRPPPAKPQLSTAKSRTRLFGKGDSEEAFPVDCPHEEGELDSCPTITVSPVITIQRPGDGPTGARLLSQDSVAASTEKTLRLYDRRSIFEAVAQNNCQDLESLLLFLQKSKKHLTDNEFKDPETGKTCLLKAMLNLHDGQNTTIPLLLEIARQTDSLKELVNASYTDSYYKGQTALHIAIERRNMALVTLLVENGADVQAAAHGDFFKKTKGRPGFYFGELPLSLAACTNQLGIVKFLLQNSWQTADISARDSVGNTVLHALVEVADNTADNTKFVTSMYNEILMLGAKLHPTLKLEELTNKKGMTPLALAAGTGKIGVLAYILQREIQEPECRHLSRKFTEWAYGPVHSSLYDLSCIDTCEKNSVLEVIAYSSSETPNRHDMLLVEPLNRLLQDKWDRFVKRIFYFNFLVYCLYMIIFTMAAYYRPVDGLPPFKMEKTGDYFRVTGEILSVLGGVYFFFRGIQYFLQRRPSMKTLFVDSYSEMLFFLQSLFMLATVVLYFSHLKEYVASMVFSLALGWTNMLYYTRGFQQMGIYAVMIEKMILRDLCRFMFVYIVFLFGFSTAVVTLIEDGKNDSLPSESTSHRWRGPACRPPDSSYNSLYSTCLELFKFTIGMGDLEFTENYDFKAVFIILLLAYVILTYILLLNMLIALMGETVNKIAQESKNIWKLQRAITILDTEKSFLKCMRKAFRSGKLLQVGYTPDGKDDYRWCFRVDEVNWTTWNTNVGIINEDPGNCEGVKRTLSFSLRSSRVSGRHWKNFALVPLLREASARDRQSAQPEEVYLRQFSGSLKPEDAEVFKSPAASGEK
From the text: Test Example 1: Evaluation of Agonistic Properties Using Human TRPV1 Transiently Expressing Cells
(1) Generation of Human TRPV1 Transiently Expressing Cells
Human TRPV1 transiently expressing cells were generated and subjected to culture. Specifically, HEK293 cells (cat #CCL-82.2, ATCC) were used as host cells. Human TRPV1 and apoaequorin were transiently expressed by introducing the mammalian cell expression pcDNA3.1 vector (cat #v790-20, Invitrogen) into which the TRPV1 gene (GenBank NP_542435.2) had been inserted.
The Dulbecco's Modified Eagle's Medium (DMEM) medium (cat #11550-043, Thermo Fisher Scientific) containing 10% inactivated fetal bovine serum (cat #10270-106, Thermo Fisher Scientific) was used as the medium, and the culture was carried out in tissue culture dishes (cat #3020-100, Iwaki). During the culture, cells were collected every 2 to 3 days by treating with PBS containing 10% 2.5 g/1-trypsin/[…] solution, phenol red (cat #32777-44, Nacalai Tesque), and passage culture was carried out.
Three days after the passage, cells were collected with 10% trypsin-PBS treatment at a state of about 80% confluency, suspended in a DMEM medium containing 10% fetal bovine serum to 4000 cells/35 μl/well, and seeded into 384-well plates (cat #353962, FALCON).
The day after seeding, Viviren (cat #E6492, Promega) was added (15 μl/well) to a final concentration of 4.5 μM/HBSS (cat #14065-056, Thermo Fisher Scientific)/90 mM HEPES (cat #17514-15, Nacalai Tesque)/0.1% BSA (cat #01281-84, Nacalai Tesque), and after centrifugation, the samples were allowed to stand at room temperature for 2 hours under light-shielded conditions.
(2) Preparation of Test Compounds
For the test compounds, dimethyl sulfoxide solutions were produced at a concentration 1000 times the final concentration, and from these solutions, solutions at concentration 10 times the final concentration were prepared with Hanks/20 mmol/L HEPES/0.10% BSA (cat #01281-84, Nacalai Tesque).
(3) Evaluation of TRPV1-Agonistic Properties
FDSS7000 (Hamamatsu Photonics K.K.) was used for detection of TRPV1 agonist-stimulated luminescence signals. The test compounds were added to plates to which the cells and luminescent substrates had been added. The luminescence signals (center wavelength: 465 nm) after addition of the test compounds were measured, and the Rlu (Max−Min) was calculated.

Crl:CD(SD) rats = experiment: Evaluation of taste aversion by drinking water; assay type: in vivo, rat; settings: two-bottle choice, overnight
Description: Test Example 3: Evaluation of Taste Aversion by Drinking Water
This test is for evaluating the taste aversion of drugs. The test was carried out by, while keeping Crl:CD(SD) rats (8 rats per group, 8 weeks old at the time of arrival) in home cages, adding the test substance solutions to water bottles. Two water bottles per cage were prepared, each filled with vehicle (sterile water containing 0.05% ethanol) and the test substance solution, and kept overnight, and the amount of water consumed during that period was measured. The proportion of water consumed with the test substance was calculated from the total amount of water consumed from the two water bottles, and the evaluation of taste aversion was carried out. It can be evaluated that the larger the proportion of water consumed with the test substance, the smaller the taste aversion and the smaller the stimulatory properties caused by the test substance.

[1] = Evaluation test for metabolic stability to S9; assay type: in vitro ADME; settings: liver S9 fraction, 37° C., 15 minutes, final compound concentration 10 nM
Description: Test Example 4: Evaluation Test for Metabolic Stability to S9
The compounds were added to a reaction solution in which the liver S9 fraction was diluted with phosphate buffer, and incubation was initiated at 37° C. (final compound concentration 10 nM, final volume 300 μL). After incubation for 15 minutes, the reaction was stopped by adding the reaction solution to acetonitrile, and centrifugation was carried out. After filtering the supernatant through a filter, the amount of compounds was determined using LC/MS/MS. From the amount of compounds obtained, the residual rate 15 minutes after the initiation of the reaction was calculated relative to the amount of compounds before the initiation of the reaction (0 minutes).

normal rats [2] = experiment: Test for eye stimulatory properties in normal rats; assay type: in vivo, rat; settings: for Number of eye-wiping (Average ± Standard deviation): 10 μL into the right eye, observed for 1 minute
Description: Test Example 7: Evaluation with Respect to Test for Eye Stimulatory Properties in Normal Rats
It has been reported that TRPV1 agonists have stimulatory properties and that administration of TRPV1 agonist solutions to the eye can induce wiping behavior. The stimulatory properties of the compounds were investigated using normal rats. Crl:CD(SD) male rats (5 rats per group, 8 weeks old, body weight 271 to 320 g) were held unanesthetized and 10 μL was dropped into the right eye using a micropipette.

normal rats [3] = experiment: Evaluation of effect of increasing swallowing in normal rats; assay type: in vivo, rat; settings: anesthetized normal rats; for number of swallowings, Average: pharyngeal infusion 12 ml/h for 10 seconds, counted for 30 seconds
Description: Test Example 5: Evaluation of Effect of Increasing Swallowing in Normal Rats
This test is for evaluating the effect of increasing swallowing function of drugs. It has been reported that induction of the swallowing reflex in normal rats using NaCl-containing water suppresses the number of swallows, and the increase in swallowing function was evaluated using a NaCl-containing solvent. After the induction of anesthesia in Crl:CD(SD) male rats (7 to 8 rats per group, 8 to 9 weeks old, body weight 280 to 310 g: at the time of arrival), the animals were sheared under the jaw with clippers and held in a supine position on a heat pad kept at 37° C. to prevent limb movement. A rat sonde was inserted into the animals' mouths, and the tip of the sonde was retained in the pharynx. Under this condition, the test substance administration solution was administered at 12 ml/h for 10 seconds using an infusion pump, and the swallowing movements were measured for 30 seconds from the initiation of administration. Note that the vehicle used was saline solution containing 1% ethanol and 0.1% Tween 80.

normal rats [4] = experiment: Desensitization of effect of increasing swallowing in normal rats; assay type: in vivo, rat; settings: for number of swallows, Average, First time: 1st of five administrations about 5 minutes apart; for number of swallows, Average, Second time: 2nd of five administrations about 5 minutes apart; for number of swallows, Average, Third time: 3rd of five administrations about 5 minutes apart; for number of swallows, Average, Fourth time: 4th of five administrations about 5 minutes apart; for number of swallows, Average, Fifth time: 5th of five administrations about 5 minutes apart; for number of swallows at repeated administrations compared to the 1st administration (Dunnett's test): five administrations about 5 minutes apart
From the text: Test Example 6: Evaluation with Respect to Desensitization of Effect of Increasing Swallowing in Normal Rats
TRPV1 agonists are known to induce TRPV1 desensitization when given at high doses or repeatedly. Using the same method as in Test Example 5, the effect of drugs on normal swallowing function in rats to induce desensitization was investigated. After the induction of anesthesia in Crl:CD(SD) male rats (7 to 8 rats per group, 8 to 9 weeks old, body weight 280 to 310 g: at the time of arrival), the animals were sheared under the jaw with clippers and held in a supine position on a heat pad kept at 37° C. to prevent limb movement. A sonde was inserted into the animals' mouths, and the tip of the sonde was retained in the pharynx. Under this condition, the test substance administration solution was administered at 12 ml/h for 10 seconds using an infusion pump, and the swallowing movements were measured for 30 seconds from the initiation of administration. Thereafter, the same test was performed about 5 minutes later, and the evaluation was repeated for a total of five times. Note that the vehicle used was saline solution containing 1% ethanol and 0.1% Tween 80.

## COc1cc(CC(=O)Nc2ccnc(-c3cccc(OC(=O)C(C)C)c3)c2)ccc1O [Example 26, 3-{4-[2-(4-hydroxy-3-methoxyphenyl)acetamido]pyridin-2-yl}phenyl 2-methylpropanoate]
Human TRPV1
  EC50: 2.3 nM
  TRPV-1-agonistic activity (in words): stronger TRPV-1-agonistic activity
Crl:CD(SD) rats; 1 μM in drinking water
  proportion of water consumed with the test substance (% Vehicle): 113 % Vehicle
Crl:CD(SD) rats; 3 μM in drinking water
  proportion of water consumed with the test substance (% Vehicle): 86 % Vehicle
Crl:CD(SD) rats; 10 μM in drinking water
  proportion of water consumed with the test substance (% Vehicle): 55 % Vehicle
[1]
  Residual rate (%): <1%

## COc1cc(CC(=O)Nc2cccc(-c3cccc(OC(=O)C(C)C)c3)n2)ccc1O [Example 1, 3-{6-[2-(4-Hydroxy-3-methoxyphenyl)acetamido]pyridin-2-yl}phenyl 2-methylpropanoate]
Normal rats [2]; rat, in vivo
  number of wiping behaviors versus control (Dunnett's test): no significant difference
Human TRPV1
  EC50: 2.6 nM
  TRPV-1-agonistic activity (in words): stronger TRPV-1-agonistic activity
Crl:CD(SD) rats; 1 μM in drinking water
  proportion of water consumed with the test substance (% Vehicle): 90 % Vehicle
Crl:CD(SD) rats; 3 μM in drinking water
  proportion of water consumed with the test substance (% Vehicle): 66 % Vehicle
Crl:CD(SD) rats; 10 μM in drinking water
  proportion of water consumed with the test substance (% Vehicle): 35 % Vehicle
Normal rats [3]
  number of swallowings, Average: 7.6
[1]
  Residual rate (%): <1%

## COc1cc(CC(=O)Nc2ccnc(-c3cccc(OC(=O)C(C)C)c3)c2)ccc1O [Example 49, 3-{4-[2-(4-Hydroxy-3-methoxyphenyl)acetamido]pyridin-2-yl}phenyl 2-methylpropanoate hydrochloride]
Normal rats [2]; rat, in vivo
  number of wiping behaviors versus control (Dunnett's test): no significant difference
Normal rats [4]; 10 μM
  number of swallows, Average, First time: 12.3
  number of swallows, Average, Second time: 12.4
  number of swallows, Average, Third time: 12.9
  number of swallows, Average, Fourth time: 11.3
  number of swallows, Average, Fifth time: 14.4
Normal rats [4]; 30 μM
  number of swallows, Average, First time: 17.1
  number of swallows, Average, Second time: 13.9
  number of swallows, Average, Third time: 14.1
  number of swallows, Average, Fourth time: 12.4
  number of swallows, Average, Fifth time: 12.7
Normal rats [4]
  number of swallows at repeated administrations compared to the 1st administration (Dunnett's test): no significant difference
Normal rats [3]
  number of swallowings compared to the solvent administered group (Dunnett's test): significantly increased
  number of swallowings, Average: 15.0*

## COc1cc(CC(=O)Nc2cccc([C@H]3CC[C@@H](OC(C)=O)CC3)c2)ccc1O [Example 12, cis-4-{3-[2-(4-hydroxy-3-methoxyphenyl)acetamido]phenyl}cyclohexyl acetate]
Normal rats [2]; rat, in vivo
  number of wiping behaviors versus control (Dunnett's test): no significant difference
Human TRPV1
  EC50: 6.3 nM
Crl:CD(SD) rats; 1 μM in drinking water
  proportion of water consumed with the test substance (% Vehicle): 103 % Vehicle
Crl:CD(SD) rats; 3 μM in drinking water
  proportion of water consumed with the test substance (% Vehicle): 31 % Vehicle
Crl:CD(SD) rats; 10 μM in drinking water
  proportion of water consumed with the test substance (% Vehicle): 22 % Vehicle
Normal rats [3]
  number of swallowings, Average: 19.4**
[1]
  Residual rate (%): 2%

## COc1cc(CNC(=O)CCCC/C=C/C(C)C)ccc1O [Capsaicin, capsaicin, reference compound]
Normal rats [2]; 1 μM
  Number of eye-wiping (Average ± Standard deviation): 2.0 ± 2.3
Normal rats [2]; 3 μM
  Number of eye-wiping (Average ± Standard deviation): 0.2 ± 0.4
Normal rats [2]; 10 μM
  Number of eye-wiping (Average ± Standard deviation): 6.4 ± 6.3
Normal rats [2]; 30 μM
  Number of eye-wiping (Average ± Standard deviation): 6.4 ± 4.4
Normal rats [2]; 100 μM
  Number of eye-wiping (Average ± Standard deviation): 21.4 ± 9.7
Normal rats [2]; eye drop in unanesthetized rats
  number of wiping behaviors versus control (Dunnett's test): significantly increased the number of wiping behaviors at concentrations of 30 μM and more
Normal rats [4]; 10 μM
  number of swallows, Average, First time: 18.2
  number of swallows, Average, Second time: 13.2
  number of swallows, Average, Third time: 14
  number of swallows, Average, Fourth time: 9.7**
  number of swallows, Average, Fifth time: 9.5**
Normal rats [4]
  number of swallows at repeated administrations compared to the 1st administration (Dunnett's test): significantly reduced at the 4th and 5th administrations
Crl:CD(SD) rats; 0.3 μM in drinking water
  proportion of water consumed with the test substance (% Vehicle): 71 % Vehicle
Crl:CD(SD) rats; 1 μM in drinking water
  proportion of water consumed with the test substance (% Vehicle): 13 % Vehicle
Crl:CD(SD) rats; 3 μM in drinking water
  proportion of water consumed with the test substance (% Vehicle): 9 % Vehicle
Normal rats [3]
  number of swallowings compared to the solvent administered group (Dunnett's test): significantly increased
  number of swallowings, Average: 14.1*

## COc1cc(CC(=O)Nc2cccc([C@H]3CC[C@@H](OC(=O)C4CCCCC4)CC3)c2)ccc1O [Example 2, cis-4-{3-[2-(4-Hydroxy-3-methoxyphenyl)acetamido]phenyl}cyclohexyl cyclohexanecarboxylate]
Normal rats [2]; rat, in vivo
  number of wiping behaviors versus control (Dunnett's test): no significant difference
Human TRPV1
  EC50: 4.5 nM
  TRPV-1-agonistic activity (in words): stronger TRPV-1-agonistic activity
Crl:CD(SD) rats; 1 μM in drinking water
  proportion of water consumed with the test substance (% Vehicle): 94 % Vehicle
Crl:CD(SD) rats; 3 μM in drinking water
  proportion of water consumed with the test substance (% Vehicle): 80 % Vehicle
Crl:CD(SD) rats; 10 μM in drinking water
  proportion of water consumed with the test substance (% Vehicle): 71 % Vehicle
Normal rats [3]
  number of swallowings compared to the solvent administered group (Dunnett's test): significantly increased
  number of swallowings, Average: 17.8***
[1]
  Residual rate (%): 1%
